Experiment [1] concerns the target T1, HCV polymerase (NS5B) type 1b (Hepatitis C virus genotype 1b, UniProt P26663).
T1 construct: a region encoding NS5B (J Virol 1991 March, 65(3), 1105-13, 544 amino acids after deletion of 47 amino acids on the C-terminal); 6xHis (C); made in house; host or cells: Escherichia coli
As to the kind of experiment: Assay of enzyme (HCV polymerase) inhibitory activity, type 1b enzyme. In kind it is biochemical, HCV BK strain (type 1b). As to conditions: HCV polymerase inhibitory activity (IC50), 1b, type 1b enzyme 0.5 μg/ml, 25° C., 60 min. The procedure, abridged: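 NS5B from HCV BK strain (type 1b), C-terminal 47 aa deleted, C-terminal His6-tagged, E. coli-expressed, 0.5 μg/ml, with ~450 nt substrate RNA carrying the 3′ UTR (polyU, 3′X) at 5 μg/ml. Incubation 60 min at 25 °C with 50 μM ATP/GTP/CTP, 2 μM UTP plus [3H]UTP, pH 7.5 Tris.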

Experiment [2] has as its target T2, HCV polymerase (NS5B) type 1a (Hepatitis C virus genotype 1a, UniProt P26664).
T2 construct: made in house; host or cells: Escherichia coli (by the 'similar method' of the 1b enzyme)
As to the kind of experiment: Assay of enzyme (HCV polymerase) inhibitory activity, type 1a enzyme. In kind it is biochemical, HCV type 1a (cloned from the blood of patients). As to conditions: HCV polymerase inhibitory activity (IC50), 1a, type 1a enzyme 1.5 μg/ml, 25° C., 60 min. The procedure, abridged:
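Patient-derived type 1a NS5B (C-terminal 47-aa deletion, His-tagged, E. coli-expressed) at 1.5 μg/ml was reacted with 5 μg/ml 3′UTR-containing substrate RNA, 50 μM ATP/GTP/CTP, 2 μM UTP plus [3H]UTP, pH 7.5, 25° C for 60 min. TCA-precipitated RNA radioactivity was counted; IC50 from ± compound.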

The structures appear in SMILES notation.

For `CCCc1ccc(CNC(=O)[C@H]2CN(C(=O)N(C)c3ccncc3)CCN2S(=O)(=O)c2ccc(OC(F)(F)F)cc2)cc1` [Example 463, (R)-4-(4-trifluoromethoxy-benzenesulfonyl)-piperazine-1,3-dicarboxylic acid 1-(methyl-pyridin-4-yl-amide) 3-(4-propyl-benzylamide)], the 50% inhibitory concentration (IC50) in experiment [1] and in experiment [2] was greater than 1000 nM throughout.

For the compound `CCC(F)(F)c1ccc(CNC(=O)[C@H]2CN(C(=O)Cn3cnnn3)CCN2S(=O)(=O)c2ccc(OC(F)(F)F)cc2)cc1` [Example 464, (R)-4-(2-tetrazol-1-yl-acetyl)-1-(4-trifluoromethoxy-benzenesulfonyl)-piperazine-2-carboxylic acid 4-(1,1-difluoro-propyl)-benzylamide], the IC50 in experiment [1] and in experiment [2] was less than 100 nM each time.

`CCCc1ccc(CNC(=O)[C@H]2CN(C(=O)Cn3nnc(CC(=O)O)n3)CCN2S(=O)(=O)c2ccc(OC(F)(F)F)cc2)cc1` [Example 465, (2-{2-oxo-2-[(R)-3-(4-propyl-benzylcarbamoyl)-4-(4-trifluoromethoxy-benzenesulfonyl)-piperazin-1-yl]-ethyl}-2H-tetrazol-5-yl)-acetic acid]: the IC50 in experiment [1] and in experiment [2] was less than 100 nM in each case.

With `CCOC(=O)Cc1nnn(CC(=O)N2CCN(S(=O)(=O)c3ccc(OC(F)(F)F)cc3)[C@@H](C(=O)NCc3ccc(C(F)(F)CC)cc3)C2)n1` [Example 466, (2-{2-[(R)-3-[4-(1,1-difluoro-propyl)-benzylcarbamoyl]-4-(4-trifluoromethoxy-benzenesulfonyl)-piperazin-1-yl]-2-oxo-ethyl}-2H-tetrazol-5-yl)-acetic acid ethyl ester], the IC50 in experiment [1] and in experiment [2] was less than 100 nM throughout.

As for `CCC(F)(F)c1ccc(CNC(=O)[C@H]2CN(C(=O)Cn3nnnc3C)CCN2S(=O)(=O)c2ccc(OC(F)(F)F)cc2)cc1` [Example 467, (R)-4-[2-(5-methyl-tetrazol-1-yl)-acetyl]-1-(4-trifluoromethoxy-benzenesulfonyl)-piperazine-2-carboxylic acid 4-(1,1-difluoro-propyl)-benzylamide], the figures for the IC50 in experiment [1] and in experiment [2] were 100 to 1000 nM and less than 100 nM, respectively.

With `CCC(F)(F)c1ccc(CNC(=O)[C@H]2CN(C(=O)Cn3nnc(C)n3)CCN2S(=O)(=O)c2ccc(OC(F)(F)F)cc2)cc1` [Example 468, (R)-4-[2-(5-methyl-tetrazol-2-yl)-acetyl]-1-(4-trifluoromethoxy-benzenesulfonyl)-piperazine-2-carboxylic acid 4-(1,1-difluoro-propyl)-benzylamide], the IC50 in experiment [1] and in experiment [2] was less than 100 nM in each case.

As to `CC(=O)N1CCN(S(=O)(=O)c2ccc(Br)c(F)c2)[C@@H](C(=O)NCc2ccc(C(C)C)cc2)C1` [Example 469, (R)-4-acetyl-1-(4-bromo-3-fluoro-benzenesulfonyl)-piperazine-2-carboxylic acid 4-isopropyl-benzylamide], the IC50 in experiment [1] and in experiment [2] was 100 to 1000 nM each time.

With `CCCc1ccc(CNC(=O)[C@H]2CN(C(=O)Nc3nc(CC(=O)OCC)cs3)CCN2S(=O)(=O)c2ccc(OC(F)(F)F)cc2)cc1` [Example 470, (2-{[(R)-3-(4-propyl-benzylcarbamoyl)-4-(4-trifluoromethoxy-benzenesulfonyl)-piperazine-1-carbonyl]-amino}-thiazol-4-yl)-acetic acid ethyl ester], the IC50 in experiment [1] and in experiment [2] was 100 to 1000 nM each time.

As for `CC(C)c1ccc(CNC(=O)[C@H]2CN(c3cnc(N)cn3)CCN2S(=O)(=O)c2ccc(C(F)(F)F)cc2)cc1` [Example 471, (R)-5′-amino-4-(4-trifluoromethyl-benzenesulfonyl)-3,4,5,6-tetrahydro-2H-[1,2′]bipyrazinyl-3-carboxylic acid 4-isopropyl-benzylamide], the IC50 (in general, the concentration needed to halve the response being measured) in experiment [1] is less than 100 nM; in experiment [2], 100 to 1000 nM.

Take `CCCc1ccc(CNC(=O)[C@H]2CN(c3cnccn3)CCN2S(=O)(=O)c2ccc(OC(F)(F)F)cc2)cc1` [Example 472, (R)-4-(4-trifluoromethoxy-benzenesulfonyl)-3,4,5,6-tetrahydro-2H-[1,2′]bipyrazinyl-3-carboxylic acid 4-propyl-benzylamide]: the 50% inhibitory concentration (IC50) in experiment [1] and in experiment [2] was less than 100 nM in each case.

Turning to `COCc1ccc(CNC(=O)[C@H]2CN(c3cnc(C(=O)O)cn3)CCN2S(=O)(=O)c2ccc(OC(F)(F)F)cc2)cc1` [Example 473, (R)-3-(4-methoxymethyl-benzylcarbamoyl)-4-(4-trifluoromethoxy-benzenesulfonyl)-3,4,5,6-tetrahydro-2H-[1,2′]bipyrazinyl-5′-carboxylic acid], the IC50 in experiment [1] and in experiment [2] was less than 100 nM throughout.

For `CCCc1ccc(CNC(=O)[C@H]2CN(c3cnc(C(=O)O)cn3)CCN2S(=O)(=O)c2ccc(OC(F)(F)F)cc2)c(Cl)c1` [Example 474, (R)-3-(2-chloro-4-propyl-benzylcarbamoyl)-4-(4-trifluoromethoxy-benzenesulfonyl)-3,4,5,6-tetrahydro-2H-[1,2′]bipyrazinyl-5′-carboxylic acid], the IC50 in experiment [1] and in experiment [2] was less than 100 nM in each case.

Take `CCCc1ccc(CNC(=O)[C@H]2CN(C(=O)Nc3nc(CC(=O)N4CCOCC4)cs3)CCN2S(=O)(=O)c2ccc(OC(F)(F)F)cc2)cc1` [Example 475, (R)-4-(4-trifluoromethoxy-benzenesulfonyl)-piperazine-1,3-dicarboxylic acid 1-{[4-(2-morpholin-4-yl-2-oxo-ethyl)-thiazol-2-yl]-amide} 3-(4-propyl-benzylamide)]: the IC50 in experiment [1] is less than 100 nM; in experiment [2], 100 to 1000 nM.

With `CCCc1ccc(CNC(=O)[C@H]2CN(C(=O)Nc3nc(CCO)cs3)CCN2S(=O)(=O)c2ccc(OC(F)(F)F)cc2)cc1` [Example 476, (R)-4-(4-trifluoromethoxy-benzenesulfonyl)-piperazine-1,3-dicarboxylic acid 1-{[4-(2-hydroxy-ethyl)-thiazol-2-yl]-amide} 3-(4-propyl-benzylamide)], the IC50 in experiment [1] and in experiment [2] was 100 to 1000 nM each time.

For the compound `CCOC(=O)c1nnc(NC(=O)N2CCN(S(=O)(=O)c3ccc(OC(F)(F)F)cc3)[C@@H](C(=O)NCc3ccc(C(F)(F)CC)cc3)C2)s1` [Example 477, 5-{[(R)-3-[4-(1,1-difluoro-propyl)-benzylcarbamoyl]-4-(4-trifluoromethoxy-benzenesulfonyl)-piperazine-1-carbonyl]-amino}-[1,3,4]thiadiazole-2-carboxylic acid ethyl ester], the half-maximal inhibitory concentration (IC50) in experiment [1] and in experiment [2] was greater than 1000 nM in each case.

As to `CCCc1ccc(CNC(=O)[C@H]2CN(c3cnc(CO)cn3)CCN2S(=O)(=O)c2ccc(CC)cc2)cc1` [Example 478, (R)-4-(4-ethyl-benzenesulfonyl)-5′-hydroxymethyl-3,4,5,6-tetrahydro-2H-[1,2′]bipyrazinyl-3-carboxylic acid 4-propyl-benzylamide], the half-inhibitory concentration (IC50) in experiment [1] and in experiment [2] was less than 100 nM each time.

`CCC(F)(F)c1ccc(CNC(=O)[C@H]2CN(C(=O)Cn3nnc(-c4ccccc4)n3)CCN2S(=O)(=O)c2ccc(OC(F)(F)F)cc2)cc1` [Example 479, (R)-4-[2-(5-phenyl-tetrazol-2-yl)-acetyl]-1-(4-trifluoromethoxy-benzenesulfonyl)-piperazine-2-carboxylic acid 4-(1,1-difluoro-propyl)-benzylamide]: the IC50 in experiment [1] and in experiment [2] was less than 100 nM in each case.

In the case of `CCC(F)(F)c1ccc(CNC(=O)[C@H]2CN(C(=O)Cc3cc(C)no3)CCN2S(=O)(=O)c2ccc(OC(F)(F)F)cc2)cc1` [Example 480, (R)-4-[2-(3-methyl-isoxazol-5-yl)-acetyl]-1-(4-trifluoromethoxy-benzenesulfonyl)-piperazine-2-carboxylic acid 4-(1,1-difluoro-propyl)-benzylamide], the half-maximal inhibitory concentration (IC50) in experiment [1] and in experiment [2] was less than 100 nM in each case.

As to `CC(=O)N1CCN(S(=O)(=O)c2ccc(C(C)C)cc2)[C@@H](C(=O)NCc2ccc(-c3ccoc3)cc2)C1` [Example 481, (R)-4-acetyl-1-(4-isopropyl-benzenesulfonyl)-piperazine-2-carboxylic acid 4-furan-3-yl-benzylamide], the IC50 in experiment [1] and in experiment [2] was 100 to 1000 nM in each case.

Regarding `CCC(F)(F)c1ccc(CNC(=O)[C@H]2CN(C(=O)Nc3nnc(CO)s3)CCN2S(=O)(=O)c2ccc(OC(F)(F)F)cc2)cc1` [Example 482, (R)-4-(4-trifluoromethoxy-benzenesulfonyl)-piperazine-1,3-dicarboxylic acid 3-[4-(1,1-difluoro-propyl)-benzylamide] 1-[(5-hydroxymethyl-[1,3,4]thiadiazol-2-yl)-amide]], the 50% inhibitory concentration (IC50) is less than 100 nM in experiment [1] and 100 to 1000 nM in experiment [2].

For the compound `CCC(F)(F)c1ccc(CNC(=O)[C@H]2CN(C(=O)Nc3nnc(C(C)=O)s3)CCN2S(=O)(=O)c2ccc(OC(F)(F)F)cc2)cc1` [Example 483, (R)-4-(4-trifluoromethoxy-benzenesulfonyl)-piperazine-1,3-dicarboxylic acid 1-[(5-acetyl-[1,3,4]thiadiazol-2-yl)-amide] 3-[4-(1,1-difluoro-propyl)-benzylamide]], the IC50 in experiment [1] and in experiment [2] was greater than 1000 nM throughout.

The values are drawn from patent US8017612B2, “Piperazine compound and use thereof as a HCV polymerase inhibitor” (priority 2006, dated 2011).
